Laboratory results as given in patent US7259161B2, “Compositions useful as inhibitors of JAK and other protein kinases” (Vertex Pharmaceuticals Incorporated, priority 2002, dated 2007).

Experiments:
JNK3 = JNK3 (Homo sapiens, UniProt P53779); assay: JNK3 inhibition assay (spectrophotometric coupled-enzyme assay); format: biochemical; details: 10 μM ATP, 10 nM activated JNK3
Method: Compounds were assayed for the inhibition of JNK3 by a spectrophotometric coupled-enzyme assay. In this assay, a fixed concentration of activated JNK3 (10 nM) was incubated with various concentrations of a potential inhibitor dissolved in DMSO for 10 minutes at 30° C. in a buffer containing 0.1 M HEPES buffer, pH 7.5, containing 10 mM MgCl2, 2.5 mM phosphoenolpyruvate, 200 μM NADH, 150 μg/mL pyruvate kinase, 50 μg/mL lactate dehydrogenase, and 200 μM EGF receptor peptide. The EGF receptor peptide is a phosphoryl acceptor in the JNK3-catalyzed kinase reaction. The reaction was initiated by the addition of 10 μM ATP and the assay plate is inserted into the spectrophotometer's assay plate compartment that was maintained at 30° C. The decrease of absorbance at 340 nm was monitored as a function of time. The rate data as a function of inhibitor concentration was fitted to competitive inhibition kinetic model to determine the Ki.

ZAP-70 = biological target: T1, ZAP-70 (Homo sapiens, UniProt P43403); assay: ZAP-70 inhibition assay (coupled enzyme assay); format: biochemical; details: 100 μM ATP, 60 nM ZAP-70
T1 sequence (P43403 1-619): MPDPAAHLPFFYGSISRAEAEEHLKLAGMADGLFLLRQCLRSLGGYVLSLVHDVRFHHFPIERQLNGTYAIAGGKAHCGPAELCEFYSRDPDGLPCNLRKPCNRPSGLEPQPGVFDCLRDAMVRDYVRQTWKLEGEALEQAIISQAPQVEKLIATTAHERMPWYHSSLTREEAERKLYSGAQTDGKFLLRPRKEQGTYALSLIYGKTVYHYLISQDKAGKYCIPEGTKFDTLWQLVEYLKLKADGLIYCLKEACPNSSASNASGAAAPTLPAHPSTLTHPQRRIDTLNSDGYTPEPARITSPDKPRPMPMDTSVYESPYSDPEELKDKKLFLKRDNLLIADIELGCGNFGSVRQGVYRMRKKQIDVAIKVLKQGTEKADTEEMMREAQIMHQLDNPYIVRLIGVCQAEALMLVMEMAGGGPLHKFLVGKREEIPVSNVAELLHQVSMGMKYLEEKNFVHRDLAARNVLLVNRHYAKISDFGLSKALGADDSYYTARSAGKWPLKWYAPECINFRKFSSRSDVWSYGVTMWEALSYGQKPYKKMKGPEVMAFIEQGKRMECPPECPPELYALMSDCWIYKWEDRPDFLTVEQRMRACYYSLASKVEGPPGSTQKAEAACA
Method: Compounds were screened for their ability to inhibit ZAP-70 using a standard coupled enzyme assay (Fox et al., Protein Sci., (1998) 7, 2249). Assays were carried out in a mixture of 100 mM HEPES 7.5, 10 mM MgCl2, 25 mM NaCl, 2 mM DTT and 3% DMSO. Final substrate concentrations in the assay were 100 μM ATP (Sigma Chemicals) and 20 μM peptide (poly-4EY, Sigma Chemicals). Assays were carried out at 30° C. and 60 nM ZAP-70. Final concentrations of the components of the coupled enzyme system were 2.5 mM phosphoenolpyruvate, 300 μM NADH, 30 μg/ml pyruvate kinase and 10 μg/ml lactate dehydrogenase.
An assay stock buffer solution was prepared containing all of the reagents listed above, with the exception of ZAP-70 and the test compound of interest. 55 μl of the stock solution was placed in a 96 well plate followed by addition of 2 μl of DMSO stock containing serial dilutions of the test compound (typically starting from a final concentration of 15 μM). […] Initial reaction rates were determined with a Molecular Devices SpectraMax Plus plate reader over a 15 minute time course. IC50 and Ki data were calculated from non-linear regression analysis using the Prism software package (GraphPad Prism version 3.0a for Macintosh, GraphPad Software, San Diego Calif., USA).

JNK3, sequence (P53779 whole entry, species assumed): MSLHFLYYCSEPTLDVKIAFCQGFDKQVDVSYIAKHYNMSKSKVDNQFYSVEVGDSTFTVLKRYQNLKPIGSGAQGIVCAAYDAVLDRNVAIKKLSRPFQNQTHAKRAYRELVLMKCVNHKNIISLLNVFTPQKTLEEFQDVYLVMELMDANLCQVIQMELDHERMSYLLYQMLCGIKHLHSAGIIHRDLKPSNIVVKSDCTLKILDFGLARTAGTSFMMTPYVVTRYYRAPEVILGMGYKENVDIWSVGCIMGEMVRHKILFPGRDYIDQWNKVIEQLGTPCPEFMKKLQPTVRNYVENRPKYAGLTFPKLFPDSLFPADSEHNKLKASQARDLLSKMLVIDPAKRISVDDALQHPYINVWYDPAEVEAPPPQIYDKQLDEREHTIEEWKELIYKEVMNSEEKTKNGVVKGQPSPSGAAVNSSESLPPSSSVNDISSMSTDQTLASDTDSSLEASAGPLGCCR

| Ki (JNK3) [nM] | Ki (ZAP-70) [nM] | Structure (SMILES) |
| --- | --- | --- |
| < 1000 | < 1000 | NS(=O)(=O)c1ccc(Nc2nccc(-c3ccc4c(c3)NC(=O)CO4)n2)cc1 [IVa-23] |
| < 1000 | < 1000 | CN1C(=O)COc2ccc(-c3ccnc(Nc4ccc(S(N)(=O)=O)cc4)n3)cc21 [IVa-24] |
